Data: patent US11571413B2, “Nicotinamide riboside treatments of domesticated meat animals” (Kansas State University Research Foundation, priority 2017, dated 2023)

Tested on: finishing barrows
Assay: Finishing pig carcass measures and fabrication (Example IV)
Format: in vivo
Details: 10 days
Experimental: Seven days prior to the beginning of the experiment, 10 finishing barrows (initial BW 111.9±1.6 kg) were assigned to individual pens located at the East Finisher facility of the Kansas State University Swine Teaching and Research Center (Manhattan, Kans.). Each pen was 7.4 m^2 with a slatted floor, contained a nipple waterer and an individual dry feeder that allowed ad libitum access to food and water. Barrows were randomly assigned to 1 of 2 NR treatments, 0 or 30 mg/kg daily of NR mixed in Karo® syrup and administered by oral gavage. Barrows were administered their assigned treatment for 10 days, after which they were harvested under USDA inspection. Twenty-four hours after harvest, carcass measurements were taken by trained personnel, carcasses were fabricated into the 5 major wholesale cuts, and whole-boneless loins were vacuum packaged and aged for 10 days. Loin were cut into 3 chops with chop 1 being used for day-0 metmyoglobin reducing ability (MRA) analysis, chop 2 being used for day-4 MRA and oxygen consumption rate (OCR) analyses, and chop 3 for 8-day objective/subjective color evaluation and MRA and OCR analyses.

What does the source list for NC(=O)c1ccc[n+]([C@@H]2O[C@H](CO)[C@@H](O)[C@H]2O)c1 [Nicotinamide riboside, nicotinamide riboside]?
1st rib subcutaneous fat (NR 30 mg/kg daily oral gavage): 1.76 cm; 10th rib subcutaneous fat (NR 30 mg/kg daily oral gavage): 0.95 cm; Carcass fabrication, Belly (NR 30 mg/kg daily oral gavage): 7.93 kg; Carcass fabrication, Boneless loin (NR 30 mg/kg daily oral gavage): 10.39 kg; Carcass fabrication, Boston butt (NR 30 mg/kg daily oral gavage): 3.22 kg; Carcass fabrication, Ham (NR 30 mg/kg daily oral gavage): 9.63 kg; Carcass fabrication, Picnic shoulder (NR 30 mg/kg daily oral gavage): 4.42 kg; Carcass weight (NR 30 mg/kg daily oral gavage): 97.4 kg; Last lumbar subcutaneous fat (NR 30 mg/kg daily oral gavage): 0.83 cm; Last rib subcutaneous fat (NR 30 mg/kg daily oral gavage): 0.91 cm; Loin eye area (NR 30 mg/kg daily oral gavage): 7.3 in²; Marbling (National Pork Producers Council marbling score) (NR 30 mg/kg, 1 = none and 10 = abundant): 2.4; Color (National Pork Producers Council color score) (NR 30 mg/kg, 1 = pale pinkish gray to white, 6 = dark purplish red): 3.4
